Experimental data: patent US20060183147A1, “Methods of identifying genes which modulate myelination” (Elan Pharmaceuticals, Inc., priority 2005, published 2006)

Key:
Type in all cases: cell-based
[1] = system: rhoA expression in rat optic nerve oligodendrocytes; assay: rhoA expression by Quantitative RT-PCR in MECA-treated oligodendrocytes
Experimental: Primers and probes were designed using the Primer Express software from Applied Biosystems. Probes were designed with 6-FAM as fluorophore at the 5′end and TAMRA as quencher at the 3′ end. QRT-PCR reactions were set up as a one-step reaction using 20 ng of total RNA as template, and included 1× Taqman™ buffer, 5 mM MgCl2, 1.5 mM dNTP mix, 300 nM forward and reverse primers, […] Taqman™ probe, 20 units RNase inhibitor, 5 units Multiscribe™ MuLV reverse transcriptase and 2 units AmpliTaq™ Gold DNA polymerase in a 50 microliter reaction. All reagents used were from Applied Biosystems. Reactions were run on a ABI 7500 using the following cycling conditions: “Hold” at 48° C. for 30 minutes, “Hold” at 95 for 10 minutes, “Denature” at 95° C. for 15 seconds, and “Anneal/Extend” at 60° C. for 1 minute. The last two steps were repeated for 40 cycles.
RhoA is a member of the Ras superfamily of small GTPases and functions as a GDP/GTP—regulated binary switch that regulates signal transduction pathways controlling actin cytoskeletal reorganization. […] Expression of rhoA was determined by Quantitative RT-PCR in oligodendrocytes treated with MECA or untreated for various times, as set forth below. […] Quantitative RT-PCR was set up as per standard protocol as a single step reaction. […]

[2] = system: optic nerve oligodendrocytes; assay: Gene expression profiling (Affymetrix Rat genome 230 2.0), control vs 3-day MECA stimulated ON-oligodendrocytes; conditions: p-value <0.05
Text: To identify transient versus long-term gene expression changes, control and 3-day ADORA1 agonist (MECA) stimulated optic nerve oligodendrocytes were compared. As described elsewhere herein, 3 days of ADORA1 stimulation were sufficient to obtain myelin segments in the optic nerve myelination system. RNA samples were generated in triplicate, each replicate generated by pooling RNA from two separate oligodendrocyte preps (one prep from 12 litters of post-natal day 4 SD pups). RNA samples were analyzed for gene expression profiling using the Affymetrix GeneChip™ Rat genome 230 2.0 Array that provides coverage of approximately 30,000 transcripts. RNA was amplified using the MessageAmp II aRNA kit from Ambion to generate sufficient amounts of RNA for hybridization to arrays, as previously described.

[3] = system: cortical oligodendrocytes; assay: Gene expression profiling (Affymetrix Rat 230 2.0), control vs 1-day MECA stimulated cortical oligodendrocytes
Text: As a second filter to determine which genes were commonly regulated between pure optic nerve and enriched cortical oligodendrocytes, gene expression analysis comparing non-myelinating cortical oligodendrocytes with 1-day MECA induced cortical oligodendrocytes committed to myelination was made. Since cortical oligodendrocyte cell preparations yield larger numbers of cells, determining overlap between 1-day MECA treated ON-oligodendrocytes and 1-day MECA treated cortical oligodendrocytes help determine if use of cortical oligodendrocytes for future experiments to test genes of interest is a feasible option. Cortical oligodendrocytes were isolated from 2 litters of newborn SD rat pups. RNA for replicates were isolated from the cells which were plated on 3 separate 6-well tissue culture plates (approximately 500,000 cells per well) with control and treated cells included in separate wells on each plate. The important caveat to keep in mind when comparing gene expression in cortical oligodendrocytes with ON-oligodendrocytes is that the cortical oligodendrocytes are not a pure cell population. Cortical oligodendrocytes comprise approximately 80% oligodendrocytes and about 20% astrocytes, with some neuronal cells. Total RNA was generated in triplicate and hybridized to Affymetrix GeneChip™ Rat 230 2.0 arrays with approximately 30,000 genes. RNA submitted for analysis was amplified using the MessageAmp II aRNA kit from Ambion to generate sufficient amounts of RNA for hybridization to arrays and to keep sample preparation conditions similar to 1-day control and MECA treated ON-oligodendrocytes set forth elsewhere herein. Table 2 provides a summary of differentially regulated genes from comparison of control and 1-day MECA stimulated cortical oligodendrocytes.

CNC(=O)[C@H]1O[C@@H](n2cnc3c(N)ncnc32)[C@H](O)[C@@H]1O [MECA, 5′-N-methylcarboxamidoadenosine]
rhoA expression compared to control (untreated) ([1]; day 1 of MECA treatment, n=3): two-fold reduction | rhoA expression compared to control (untreated) ([1]; other time points (6 hours, 16 hours, 2 days, 3 days)): No significant differences | differentially regulated genes, fold change >1.1 fold [2]: 2721 genes | differentially regulated genes, fold change >1.2 fold [2]: 2428 genes | differentially regulated genes, fold change >1.5 fold [2]: 1021 genes | down-regulated changes [2]: 52% | up-regulated changes [2]: 48% | differentially regulated genes, fold change >1.1 fold ([3]; p-value <0.05): 1969 genes | differentially regulated genes, fold change >1.2 fold ([3]; p-value <0.05): 1425 genes | differentially regulated genes, fold change >1.5 fold ([3]; p-value <0.05): 252 genes | down-regulated changes ([3]; p-value <0.05): 49% | up-regulated changes ([3]; p-value <0.05): 51% | total differentially regulated genes in the group comparison ([3]; p-value <0.05, 1.2 fold-change cutoff): 1339 genes | genes exclusive to cortical oligodendrocytes ([3]; p-value <0.05, 1.2 fold-change cutoff, versus ON-oligodendrocytes): 925 genes
